In brackets after ≈: the same amount, converted by molar mass. Several values for one entry are separate records, joined by “and”; a condition that tells them apart may be missing. Equal values may be shown once.

Data set [1] relates to M. tuberculosis H37Rv. As to the kind of experiment: Agar dilution assay (ADA), MIC. The conditions noted are these: for MIC / Mtb H37Rv MIC: 37° C., 4 weeks; for MIC: read-out: Mtb H37Rv MIC; for anti-TB activity relative to the drug NTZ (times better / more potent): MIC compared with NTZ MIC 52.12 μM. It is filed as cell-based, Mycobacterium tuberculosis.
Data set [2] deals with replicating and nonreplicating Mtb. The conditions noted are these: cited from earlier work.
The subject of data set [3] is M. tuberculosis H37Rv. Kind of data set: BACTEC-460TB radiometric assay, MIC and growth index. It is filed as cell-based, Mycobacterium tuberculosis. The conditions noted are these: for MIC: Mycobacterium tuberculosis, H37RV, BACTEC-460TB radiometric assay, read-out: Mtb H37Rv MIC (BACTEC); for Mtb growth inhibition, growth index (GI) vs days: day 1 to day 11, FIG. 5.

For data set [4], the system named is Vero monkey kidney cells. Kind of data set: Cytotoxicity, Resazurin assay. In kind it is cell-based. The conditions noted are these: for cytotoxicity to Vero cells: FIG. 4; for selectivity index (SI): ratio CC50:MIC as stated in text b128 (fits BACTEC MIC); for SI (selectivity index): ratio CC50:MIC, Table 1 (agar dilution MIC). As for the experimental part:
(§1) Cytotoxicity Studies: The compounds for cytotoxicity were tested in an in vitro model for toxicity with Vero monkey kidney cells using Resazurin assay. […] Cells were exposed to dilutions of experimental and control drugs in triplicate for […] with each compound at a range of concentrations from 100-1.56 μg/ml. […] Each well had 100 μL of the test material in serially descending concentrations. After 72 h of incubation, 10 μL of Resazurin indicator solution (0.1%) was added and incubation was continued for 4-5 h. Any color change from purple to pink or colorless was recorded as positive. Fluorescence was measured of each sample with excitation wavelength at 530 nm and emission wavelength at 590 nm using the BMG Polar Star Galaxy. The CC50 values (50% inhibitory concentrations) were calculated by plotting fluorescence values using Microsoft excel template. The data from this toxicity testing and MIC values were used to calculate a selectivity index (SI), the ratio of CC50: MIC.
A general note: The colour change of resazurin is a common sign of viable cells or microbes.

The nature of data set [5]: Cytotoxicity, Resazurin assay. It is filed as cell-based, monkey. The conditions noted are these: monkey, Resazurin assay, 72 h; read-out: In vitro cytotoxicity Vero cells CC50. The procedure: as §1
[6] abbreviates: Mycobacterium tuberculosis, H37RV, 672 h.

As a reminder, the melting point is the temperature of the solid-liquid transition. One may read the MIC as the least concentration at which growth counts as inhibited. On to `Fc1ccc(-c2csc(Nc3ccccc3C(F)(F)F)n2)cc1` [Compound 8b, 4-(4-fluorophenyl)-N-(2-(trifluoromethyl)phenyl)thiazol-2-amine], for which the melting point amounted to 184 °C. Further, the MIC in data set [1] (setting [6]) was over 12.5 mg/L.

In the case of `COc1cccc2c1CCCC2=NNc1nc(-c2cccc([N+](=O)[O-])c2)cs1` [Compound 1d, 2-(2-(5-methoxy-3,4-dihydronaphthalen-1(2H)-ylidene)hydrazinyl)-4-(3-nitrophenyl)thiazole], the melting point was determined as 185 °C. Moreover, the “anti-TB activity relative to the drug NTZ (times better / more potent)” value in data set [1] was “about 2 times”. Further, in data set [1] (setting [6]), the MIC is 31.7 µM and 12.5 µg/mL.

Take `CC(=O)Oc1ccccc1C(=O)Nc1ncc([N+](=O)[O-])s1` [Nitazoxanide (NTZ), Nitazoxanide]: in data set [2] (nonreplicating Mtb), the MIC was 60.38 μM and 16 μg/mL.

Consider `[H]/N=C(/N)N[C@H]1[C@H](O)[C@@H](O)[C@H](O[C@@H]2O[C@@H](C)[C@](O)(C=O)[C@H]2O[C@@H]2O[C@@H](CO)[C@H](O)[C@@H](O)[C@@H]2NC)[C@@H](N/C(N)=N\[H])[C@@H]1O` [Streptomycin (SM), Streptomycin, reference compound], for which the MIC in data set [3] was 6 µM (≈ 3.49 µg/mL).

`COc1ccc(OC)c(Nc2nc(-c3cccc([N+](=O)[O-])c3)cs2)c1` [Compound 7b, N-(2,5-dimethoxyphenyl)-4-(3-nitrophenyl)thiazol-2-amine]: the melting point was determined as 154 °C. For the same compound, the minimal inhibitory concentration (MIC) in data set [1] (setting [6]) is over 12.5 mg/L.

`COc1ccc(-c2csc(NN=Cc3cn(Cc4ccc(Cl)cc4Cl)c4ccccc34)n2)cc1OC` [Compound 2a, 2-(2-((1-(2,4-dichlorobenzyl)-1H-indol-3-yl)methylene)hydrazinyl)-4-(3,4-dimethoxyphenyl)thiazole] came in with a melting point of 205 °C. Besides, in data set [1], the “Mtb H37Rv MIC” value was over 12.50 mg/L. The MIC in data set [1] (setting [6]) is over 12.5 mg/L.

Consider `Fc1ccc(Nc2nc(-c3ccc(F)cc3)cs2)cc1` [Compound 6, N,4-bis(4-fluorophenyl)thiazol-2-amine], for which the melting point is 127 °C. In addition, in data set [3], the MIC stood at 12.5 µM (≈ 3.6 µg/mL). The “Mtb growth inhibition, growth index (GI) vs days” value in data set [3] (≧12.5 μM) is reported as “effectively inhibit Mtb growth till day 11”. Also, in data set [1], the “anti-TB activity relative to the drug NTZ (times better / more potent)” value is on record as “about 9 times”. Also, the MIC in data set [1] (setting [6]) is 6.25 µM and 1.8 µg/mL.

The CC50 is the concentration giving 50% cytotoxicity. Turning to `COc1ccc(-c2csc(NN=C3CCCc4c(OC)cccc43)n2)cc1OC` [Compound 1a, 4-(3,4-dimethoxyphenyl)-2-(2-(5-methoxy-3,4-dihydronaphthalen-1(2H)-ylidene)hydrazinyl)-thiazole], the melting point turned out to be 200 °C. In addition, the “cytotoxicity to Vero cells” value in data set [4] (Resazurin assay) is on record as “failed to show any cytotoxicity”. Besides, in data set [4], the “selectivity index (SI)” value was at least 39 and the “SI (selectivity index)” value is “≧16”. In data set [5], the 50% cytotoxic concentration (CC50) at 72 h is over 244 µM. Also, the “Mtb growth inhibition, growth index (GI) vs days” value in data set [3] (6.25 μM) is “very effective for inhibiting the Mtb growth till day 11”. Further, the MIC in data set [3] is 6.25 µM (≈ 2.56 µg/mL). The MIC in data set [1] (setting [6]) was 15.3 µM and 6.25 µg/mL.

`Fc1ccc(-c2csc(NN=Cc3cn(Cc4ccc(Cl)cc4Cl)c4ccccc34)n2)cc1` [Compound 2c, 2-(2-((1-(2,4-dichlorobenzyl)-1H-indol-3-yl)methylene)hydrazinyl)-4-(4-fluorophenyl)thiazole] yielded a melting point of 198 °C. The “Mtb H37Rv MIC” value in data set [1] was over 12.50 mg/L. In addition, the MIC in data set [1] (setting [6]) was over 12.5 mg/L.

On to `NNC(=O)c1ccncc1` [Isoniazid (INH), Isoniazid, reference compound], for which the MIC in data set [1] (setting [6]) is under 1 mg/L.

Consider `COc1ccc(OC)c(Nc2nc(-c3ccc(F)cc3)cs2)c1` [Compound 7a, N-(2,5-dimethoxyphenyl)-4-(4-fluorophenyl)thiazol-2-amine], for which the melting point came to 160 °C. Further, in data set [1] (setting [6]), the MIC was over 12.5 mg/L.

`COc1ccc(-c2csc(Nc3ccccc3C(F)(F)F)n2)cc1` [Compound 8d, 4-(4-methoxyphenyl)-N-(2-(trifluoromethyl)phenyl)thiazol-2-amine]: in data set [1] (setting [6]), the MIC is over 12.5 mg/L.

`O=[N+]([O-])c1cccc(-c2csc(Nc3ccccc3C(F)(F)F)n2)c1` [Compound 8c, 4-(3-nitrophenyl)-N-(2-(trifluoromethyl)phenyl)thiazol-2-amine]: the melting point was 182 °C. Besides, the MIC in data set [1] (setting [6]) was over 12.5 mg/L.

In turn, `COc1cccc2c1CCCC2=NNc1nc(-c2ccc(Cl)cc2Cl)cs1` [Compound 1b, 4-(2,4-dichlorophenyl)-2-(2-(5-methoxy-3,4-dihydronaphthalen-1(2H)-ylidene)hydrazinyl)thiazole] had a melting point of 200 °C. Moreover, the “anti-TB activity relative to the drug NTZ (times better / more potent)” value in data set [1] is reported as “about 2 times”. Also, the MIC in data set [1] (setting [6]) was 29.9 µM and 12.5 µg/mL.

In turn, `Clc1ccc(Cn2cc(C=NNc3nc(-c4ccc(Cl)cc4Cl)cs3)c3ccccc32)c(Cl)c1` [Compound 2b, 2-(2-((1-(2,4-dichlorobenzyl)-1H-indol-3-yl)methylene)hydrazinyl)-4-(2,4-dichlorophenyl)thiazole] showed a melting point of 185 °C. Besides, in data set [1] (setting [6]), the MIC was 22.9 µM and 12.5 µg/mL.

In turn, `COc1ccc(-c2csc(Nc3ccccc3C(F)(F)F)n2)cc1OC` [Compound 8a, 4-(3,4-dimethoxyphenyl)-N-(2-(trifluoromethyl)phenyl)thiazol-2-amine] showed a melting point of 188 °C. Besides, the MIC in data set [1] (setting [6]) was over 12.5 mg/L.

`COc1cccc2c1CCCC2=NNc1nc(-c2ccc(F)cc2)cs1` [Compound 1c, 4-(4-fluorophenyl)-2-(2-(5-methoxy-3,4-dihydronaphthalen-1(2H)-ylidene)hydrazinyl)thiazole] gave a melting point of 198 °C. Further, in data set [4] (Resazurin assay, 72 h, read-out: In vitro cytotoxicity Vero cells CC50), the CC50 was over 300 µM. In data set [4] (Resazurin assay), the “cytotoxicity to Vero cells” value is listed as “failed to show any cytotoxicity”. Moreover, in data set [4], the “selectivity index (SI)” value is at least 48 and the “SI (selectivity index)” value was “≧17”. Moreover, the CC50 at 72 h in data set [5] is over 244 µM. Besides, the “Mtb growth inhibition, growth index (GI) vs days” value in data set [3] (6.25 μM) is recorded as “comparatively lesser effective on day 10 onwards”. Moreover, in data set [3], the MIC is 6.25 µM (≈ 2.3 µg/mL). Besides, the MIC in data set [1] (listed as is) worked out at 17.03 µM. Besides, the MIC in data set [1] (setting [6]) was 17 µM and 6.25 µg/mL.

With `O=C(Nc1ncc([N+](=O)[O-])s1)c1ccccc1O` [Tizaxonide (TIZ), Tizaxonide], in data set [2] (replicating Mtb, literature value listed with the agar dilution data), the “MIC of reference NTZ/TIZ, Mtb H37Rv” value is 60.38 μM and 16.00 μg/mL.

As for `COc1ccc(-c2csc(Nc3cc(OC)ccc3OC)n2)cc1` [Compound 7c, N-(2,5-dimethoxyphenyl)-4-(4-methoxyphenyl)thiazol-2-amine], the melting point was 104 °C. Further, the MIC in data set [1] (setting [6]) was over 12.5 mg/L.
